According to patent publication US4129737A, “Process for the preparation of an 8-alkyl-5-oxo-5,8-dihydro-pyrido(2,3-d)pyrimidine-6-carboxylic acid” (priority 1972, dated 1978):
Values after ≈ are worked out from the molar mass of the structure shown. Where two headings read alike, the source gives them in different places.

Key:
[1] = test system: B. pyocyaneus A22; test: Minimum inhibitory concentration by agar dilution, B. pyocyaneus A22; assay type: cell-based; conditions: Pseudomonas aeruginosa, A22, 37° C., 18 hours, read-out: minimum inhibitory concentration (M.I.C.)
Method: (§1) (a) Trypticase soya medium (T.S.A.), which is very suitable for culturing the majority of microorganisms; it has the following composition:
(§2) (b) Ordinarily nutrient agar (N.A.), which is less rich in nutrients, corresponds to the following formulation: […]
(§3) Table I gives the minimum inhibitory concentrations (expressed in μg/cm^3) for the various microorganisms tested on each medium.
(§4) The products were tested on three Gram positive microorganisms (1 to 3) […] and on 10 Gram negative microorganisms (4 to 13).
(§5) Table (II) gives the minimum inhibitory concentrations of the compounds of Examples XII to XVI, determined on the agar medium, N.A., and expressed in μg/cm^3.

[2] = test system: B. pyocyaneus TUR; test: Minimum inhibitory concentration by agar dilution, B. pyocyaneus TUR; assay type: cell-based; conditions: Pseudomonas aeruginosa, 37° C., 18 hours
Method: as §1, §2, §3, §4

[3] = test system: Esch. Coli 95; test: Minimum inhibitory concentration by agar dilution, Esch. Coli 95; assay type: cell-based; conditions: Escherichia coli, 37° C., 18 hours, read-out: minimum inhibitory concentration (M.I.C.)
Method: as §1, §2, §3, §4, §5

[4] = test system: Salm. typhi; test: Minimum inhibitory concentration by agar dilution, Salm. typhi; assay type: cell-based; conditions: Salmonella enterica, 18 h
Method: as §1, §2, §3, §4, §5

[5] = test system: Sh. sonnei; test: Minimum inhibitory concentration by agar dilution, Sh. sonnei; assay type: cell-based; conditions: Shigella sonnei, 37° C., 18 hours, read-out: minimum inhibitory concentration (M.I.C.)
Method: as §1, §2, §3, §4, §5

[6] = test system: Pr. morganii; test: Minimum inhibitory concentration by agar dilution, Pr. morganii; assay type: cell-based; conditions: Morganella morganii, 37° C., 18 hours, read-out: minimum inhibitory concentration (M.I.C.)
Method: as §1, §2, §3, §4, §5

[7] = test system: Esch 111 B4; test: Average MIC, solid medium (nutrient agar) dilution method; assay type: cell-based; conditions: 18 h, average of five determinations, read-out: minimum inhibitory concentration, average
[8] = test system: Salm. typhi 0901; test: as above; assay type: cell-based; conditions: Salmonella enterica, 18 h, read-out: minimum inhibitory concentration, average
[9] = test system: mice; test: Oral toxicity in mice; assay type: in vivo; conditions: doses as high as 4 g per kilogram
[10] = test system: dog; conditions: in vivo, 100 mg/kg/day
[11] = Absorption and elimination after oral administration; assay type: in vivo
[12] = test system: Staphylococcus 209P; test: Average MIC, solid medium (nutrient agar) dilution method; conditions: 18 h, read-out: minimum inhibitory concentration, average
[13] = test system: Staphylococcus SIM; test: as above; conditions: 18 h, read-out: minimum inhibitory concentration, average
[14] = test system: Streptococcus A561; test: as above; conditions: A561, 18 h, read-out: minimum inhibitory concentration, average
[15] = test system: B. subtilis 6633; test: as above; conditions: Bacillus subtilis, 6633, 18 h, read-out: minimum inhibitory concentration, average
[16] = test system: Bord. bronch. 4617; test: as above; conditions: 18 h, read-out: minimum inhibitory concentration, average
[17] = test system: Ps. aeruginosa A22; test: as above; conditions: Pseudomonas aeruginosa, A22, 18 h, read-out: minimum inhibitory concentration, average
[18] = test system: Ps. aeruginosa 72-345; test: as above; conditions: Pseudomonas aeruginosa, 72345, 18 h, read-out: minimum inhibitory concentration, average
[19] = test system: Esch. coli. 95 I.S.M.; test: as above; conditions: Escherichia coli, 18 h, read-out: minimum inhibitory concentration, average
[20] = test system: Esch. coli. 54-127 OMS; test: as above; conditions: Escherichia coli, 18 h, read-out: minimum inhibitory concentration, average
[21] = test system: Esch. coli. LRB 45; test: as above; conditions: Escherichia coli, 18 h, read-out: minimum inhibitory concentration, average
[22] = test system: Esch. coli. LRB 67; test: as above; conditions: Escherichia coli, 18 h, read-out: minimum inhibitory concentration, average
[23] = test system: Esch. coli. Cho; test: as above; conditions: Escherichia coli, 18 h, read-out: minimum inhibitory concentration, average
[24] = test system: Klebs. pneumoniae 10.031; test: as above; conditions: Klebsiella pneumoniae, 10.031, 18 h, read-out: minimum inhibitory concentration, average
[25] = test system: S. enteritidis DANYZ; test: as above; conditions: Salmonella enterica, 18 h, read-out: minimum inhibitory concentration, average
[26] = test system: S. oranienburg 10-66; test: as above; conditions: Salmonella enterica, 1066, 18 h, read-out: minimum inhibitory concentration, average
[27] = test system: Arizona 6211; test: as above; conditions: 18 h, read-out: minimum inhibitory concentration, average
[28] = test system: Pr. vulgaris 12-53; test: as above; conditions: Proteus vulgaris, 1253, 18 h, read-out: minimum inhibitory concentration, average
[29] = test system: Pr. mirabilis Nig; test: as above; conditions: Proteus mirabilis, 18 h, read-out: minimum inhibitory concentration, average
[30] = N.A. (nutrient agar, pH 6.8), Table I
[31] = T.S.A. (trypticase soya medium, pH 7.3)

## CCn1cc(C(=O)O)c(=O)c2cnc(N3CCNCC3)nc21 [Example VIII, 2-Piperazino-5-oxo-8-ethyl-5,8-dihydro-pyrido(2,3-d)pyrimidine-6-carboxylicacid]
[1]; [30]
  MIC: 25 µg/mL (≈ 82.4 µM)
[1]; [31]
  MIC: 12.5 µg/mL (≈ 41.2 µM)
[2]; [30]
  MIC: 25 µg/mL (≈ 82.4 µM)
[2]; T.S.A. (trypticase soya medium, pH 7.3), read-out: minimum inhibitory concentration (M.I.C.)
  MIC: > 100 µg/mL
[3]; [30]
  MIC: 0.8 µg/mL (≈ 2.64 µM)
[3]; [31]
  MIC: 0.8 µg/mL (≈ 2.64 µM)
[4]; pH 6.8, read-out: minimum inhibitory concentration (M.I.C.)
  MIC: 6.2 µg/mL (≈ 20.4 µM)
[4]; pH 7.3, read-out: minimum inhibitory concentration (M.I.C.)
  MIC: 1.6 µg/mL (≈ 5.27 µM)
[5]; [30]
  MIC: 0.8 µg/mL (≈ 2.64 µM)
[5]; [31]
  MIC: 0.8 µg/mL (≈ 2.64 µM)
[6]; [30]
  MIC: 0.8 µg/mL (≈ 2.64 µM)
[6]; [31]
  MIC: 0.8 µg/mL (≈ 2.64 µM)
[7]
  MIC: 1.64 µg/mL (≈ 5.41 µM)
[8]
  MIC: 2.06 µg/mL (≈ 6.79 µM)
[9]
  deaths: no deaths were observed
[10]
  toxic signs: without showing any toxic signs
[11]
  absorption: absorbed rapidly
  elimination: eliminated principally in the urine
[11]; even with low doses, majority of Gram negative microorganisms
  urinary concentrations relative to minimum inhibitory concentrations: very much greater than the minimum inhibitory concentrations
[12]
  MIC: 6.22 µg/mL (≈ 20.5 µM)
[13]
  MIC: 12.5 µg/mL (≈ 41.1 µM)
[14]
  MIC: 13.7 µg/mL (≈ 45.3 µM)
[15]
  MIC: 8.1 µg/mL (≈ 26.7 µM)
[16]
  MIC: 75 µg/mL (≈ 247 µM)
[17]
  MIC: 12.5 µg/mL (≈ 41.2 µM)
[18]
  MIC: 13.7 µg/mL (≈ 45.3 µM)
[19]
  MIC: 5.14 µg/mL (≈ 16.9 µM)
[20]
  MIC: 5.66 µg/mL (≈ 18.7 µM)
[21]
  MIC: 2.04 µg/mL (≈ 6.73 µM)
[22]
  MIC: 1.2 µg/mL (≈ 3.96 µM)
[23]
  MIC: 2.66 µg/mL (≈ 8.77 µM)
[24]
  MIC: 1.88 µg/mL (≈ 6.2 µM)
[25]
  MIC: 1.2 µg/mL (≈ 3.96 µM)
[26]
  MIC: 27.5 µg/mL (≈ 90.7 µM)
[27]
  MIC: 1.26 µg/mL (≈ 4.15 µM)
[28]
  MIC: 0.36 µg/mL (≈ 1.19 µM)
[29]
  MIC: 1.58 µg/mL (≈ 5.21 µM)
